Results as given in patent publication US8835466B2, “Synthesis and uses of pyroglutamic acid derivatives” (Prodimed, S.A., priority 2006, dated 2014).
Values joined by “and” are separate entries in the source; they are usually repeats but may differ in a detail not shown here. Equal entries are not always repeated. Where two headings read alike, the source gives them in different places.

How the values were obtained:
P-815 (Mastocytoma) = assay: Effect of isomer 4 (9d) on tumour growth, P-815 (Example 10); type: in vivo; settings: DBA/2NCrI mice, 250 ng/mice i.p. days 6, 7 and 14
Protocol: (§1) The following assays were made in order to check the effect of isomer 4 (9d) on different tumours following methods and materials analogous to those used in examples 8 and 9, In all cases sterile physiologic saline (Grifols, Barcelona, Spain) was used as placebo. Isomer 4 (9d) was tested at the dose levels indicated in Table 13 on days 6, 7 and 14 after tumour inoculation. In all cases the vehicle was physiologic saline and the treatments were given by intraperitoneal route. The volume inoculated was 0.2 mL/animal.

healthy mice = type: in vivo; settings: for WEIGHT LOSS: weight, MEAN / WEIGHT LOSS: weight, MEDIAN: n 5
Protocol: This assay was made in order to perform a preliminary study to address the toxic effect of Isomer 4 (9d) used at a high dose on healthy mice. Its eventual toxicity will be compared with placebo.
Isomer 4 (9d) at 0.7 mg/mL in sterile physiological saline.
The vehicle in which Isomer 4 was diluted was sterile physiological saline for injection (Grifols, Barcelona, Spain) and sterile distilled water for injection (Grifols, Barcelona, Spain)
The treatments were given i.p. or s.c.
Every mouse was observed daily during 10 days.
Three measures were performed:
3. Weight. This was measured and expressed in grammes.
4. Lethality. This was expressed as percentage of survival.
5. Toxicity. This was checked on alive mice for the following parameters and score criteria:
A case-control study was performed with treated and control mice in order to determine whether differences between Isomer 4 and administration of placebo were present. The U-test of Mann Withney was chosen for being one of the better known non-parametrical tests, anyway, results for this test are equivalent both to those of Wilcoxon's sum of ranges and Kruskal-Wallis two-groups test.

Lewis (lung carcinoma) = assay: Effect of isomer 4 (9d) on tumour growth, Lewis (Example 10); type: in vivo; settings: Lewis (low dose lung carcinoma); C57BL/6NCrI mice; 260 ng/mice i.p. days 6, 7 and 14
Protocol: as §1

Mm5MT (Breast tumour) = assay: Effect of isomer 4 (9d) on tumour growth, Mm5MT (Example 10); type: in vivo; settings: C3H/HeN mice, 250 ng/mice i.p. days 6, 7 and 14
Protocol: as §1

ASB XIV (lung carcinoma) = assay: Effect of isomer 4 (9d) on tumour growth, ASB XIV (Example 10); type: in vivo; settings: Balb/cAnNCrI mice, 260 ng/mice i.p. days 6, 7 and 14
Protocol: as §1

[1] = system: CD11b and Ly6G positive leukocyte populations; assay: Phenotype leukocyte analysis by flow cytometry (CD11b, Ly6G) in peripheral blood (Example 16); type: in vivo, Balb/c mice
Protocol: This Example was carried out with the aim at assessing eventual differences in the leukocyte population percentage among the treated mice by flow cytometry. The counts were carried out by using a flow cytometer after labelling membrane proteins (CD11B and Ly6G) with specific antibodies to said proteins. CD11B (also known as Mac-1) marker is expressed in monocyte populations whereas Ly6G (also known as GR-1) is expressed in granulocyte populations. Both markers (CD11b and Ly6G) are expressed in neutrophile populations.
Isomer 4 (compound 9d) at 65 μg/mL in sterile physiological saline.
Equipment Laminar flood hood, Flow cytometer, Adjustable pipettes, Sterile syringes, Sterile needles, EDTA stelile tubes, Plastic tubes. Reagents • Anaesthetic solution • Sterile PBS (Sigma, St. Louis, Mo., USA) • Physiological saline (Grifols, Barcelona, Spain) • Rat anti-mouse CD11b-PE (Beckman Coulter, Fullerton, Calif., USA) • Rat anti-mouse Ly6G-FITC (Beckman Coulter, Fullerton, Calif., USA) • Optylise C (Beckman Coulter, Fullerton, Calif., USA) Dose, Vehicle, Route and Volume Administration Dose Isomer 4 (compound 9d) was tested at the dose levels of 250 ng administered on days 0, and 7. Vehicle The vehicle in which Isomer 4 was diluted is physiological saline. Administration Route and Volume
The treatments were given by intraperitoneal route. The volume inoculated was 200 μl/animal.
Balb/c mice were distributed into 2 experimental groups:
Three days after the last dose of the treatment, murine blood was isolated. It was obtained directly from intracardiac punction. Previously, mice were anesthetized intramuscularly.
Blood was mixed with the monoclonal antibodies described above.
After 20 minutes of incubation, Optylise C solution was added into the samples to lise erythrocytes population.
Finally, samples were diluted ½ with 1× sterile PBS and checked by flow cytometry.
Percentages of each population analyzed were expressed as single values and as the mean±SD from each experimental group.

[2] = system: CT26.CL25 (colon carcinoma); assay: Effect of isomer 4 (9d) on tumour growth, CT26.CL25 (Example 10); type: in vivo; settings: CT26.CL25 (Low dose colon carcinoma); Balbc/cByl mice; 250 ng/mice i.p. days 6, 7 and 14
Protocol: as §1

KLN 205 (lung carcinoma) = assay: Effect of isomer 4 (9d) on tumour growth, KLN 205 (Example 10); type: in vivo; settings: KLN 205 (high dose lung carcinoma); DBA/2NCrI mice; 260 ng/mice i.p. days 6, 7 and 14
Protocol: as §1

[3] = Group A1, 1.25 mg i.p., C57BL/6NCrI, day 0 after the beginning of the treatment
[4] = Group A1, 1.25 mg i.p., C57BL/6NCrI, day 1 after the beginning of the treatment
[5] = Group A1, 1.25 mg i.p., C57BL/6NCrI, day 2 after the beginning of the treatment
[6] = Group A1, 1.25 mg i.p., C57BL/6NCrI, day 3 after the beginning of the treatment
[7] = Group A1, 1.25 mg i.p., C57BL/6NCrI, day 4 after the beginning of the treatment
[8] = Group A1, 1.25 mg i.p., C57BL/6NCrI, day 5 after the beginning of the treatment
[9] = Group A1, 1.25 mg i.p., C57BL/6NCrI, day 6 after the beginning of the treatment
[10] = Group A1, 1.25 mg i.p., C57BL/6NCrI, day 7 after the beginning of the treatment
[11] = Group A1, 1.25 mg i.p., C57BL/6NCrI, day 8 after the beginning of the treatment
[12] = Group A1, 1.25 mg i.p., C57BL/6NCrI, day 9 after the beginning of the treatment
[13] = Group A1, 1.25 mg i.p., C57BL/6NCrI, day 10 after the beginning of the treatment
[14] = Balb/C mice, two doses (once per week) 250 ng i.p., flow cytometry three days after the last dose
[15] = group mean, n = 4, 250 ng i.p. on days 0 and 7, blood three days after the last dose
[16] = individual mice, 250 ng i.p. on days 0 and 7, blood three days after the last dose, listed as 9d

For `Br.N[C@]1(C[n+]2ccccc2)C[C@H](C(=O)O)NC1=O.[Br-]` (single isomer, unassigned; isomer 4) [isomer 4, 3S,5R-1-(3-Amino-5-carboxy-2-oxopyrrolidin-3-ylmethyl)pyridinium bromide hidrobromide], the “Tumour growth inhibition?” value (P-815 (Mastocytoma)) was “YES”, the “Differences on weight between groups (Isomer 4 vs placebo), p (Mann-Whitney U test)” value (healthy mice; C57BL/6 mice, every day scored over 10 days) was > 0.05 and the “WEIGHT LOSS: weight of each mouse” value (healthy mice; Group A1, 1.25 mg i.p., C57BL/6NCrI, individual animals 1-5, day 8 after the beginning of the treatment) was 26 g (3×) and 20 g and 28 g. The “WEIGHT LOSS: weight, MEAN” value (healthy mice; [3]) was 26.4 g, the “WEIGHT LOSS: weight, MEDIAN” value (healthy mice; [3]) was 27 g and the “WEIGHT LOSS: weight, MEAN” value (healthy mice; [4]) was 25.4 g. For the same molecule, the “WEIGHT LOSS: weight, MEDIAN” value (healthy mice; [4]) was 26 g, the “WEIGHT LOSS: weight, MEAN” value (healthy mice; [5]) was 25.4 g and the “WEIGHT LOSS: weight, MEDIAN” value (healthy mice; [5]) was 26 g. The “WEIGHT LOSS: weight, MEAN” value (healthy mice; [6]) was 26 g, the “WEIGHT LOSS: weight, MEDIAN” value (healthy mice; [6]) was 26 g and the “WEIGHT LOSS: weight, MEAN” value (healthy mice; [7]) was 25.8 g. The “WEIGHT LOSS: weight, MEDIAN” value (healthy mice; [7]) was 26 g, the “WEIGHT LOSS: weight, MEAN” value (healthy mice; [8]) was 24.8 g and the “WEIGHT LOSS: weight, MEDIAN” value (healthy mice; [8]) was 26 g. For the same molecule, the “WEIGHT LOSS: weight, MEAN” value (healthy mice; [9]) was 25 g, the “WEIGHT LOSS: weight, MEDIAN” value (healthy mice; [9]) was 26 g and the “WEIGHT LOSS: weight, MEAN” value (healthy mice; [10]) was 25 g. The “WEIGHT LOSS: weight, MEDIAN” value (healthy mice; [10]) was 26 g, the “WEIGHT LOSS: weight, MEAN” value (healthy mice; [11]) was 25.2 g and the “WEIGHT LOSS: weight, MEDIAN” value (healthy mice; [11]) was 26 g. For the same molecule, the “WEIGHT LOSS: weight, MEAN” value (healthy mice; [12]) was 25 g, the “WEIGHT LOSS: weight, MEDIAN” value (healthy mice; [12]) was 26 g and the “WEIGHT LOSS: weight, MEAN” value (healthy mice; [13]) was 24.8 g. For the same molecule, the “WEIGHT LOSS: weight, MEDIAN” value (healthy mice; [13]) was 26 g, the “Deaths or toxicity (systemic), in words” value (healthy mice; Group A1, dose exceeded 50,000-fold the total amount of the therapeutic dose) was “No deaths or toxicity were observed” and the “Local toxicity, in words” value (healthy mice; Group C1, dose exceeded 500-fold the normal concentration of the therapeutic dose) was “Local toxicity was neither observed”. For the same molecule, the “Tolerance by mice, in words” value (healthy mice; doses that greatly exceed its therapeutic range) was “well tolerated”, the “Tumour growth inhibition?” value (Lewis (lung carcinoma)) was “YES” and the “Tumour growth inhibition?” value (Mm5MT (Breast tumour)) was “YES”. The “Tumour growth inhibition?” value (ASB XIV (lung carcinoma); ASB XIV (high dose lung carcinoma)) was “YES”, the “Tumour growth inhibition?” value (ASB XIV (lung carcinoma); ASB XIV (low dose lung carcinoma)) was “YES” and the “CD11b positive cells in peripheral blood compared with control mice” value [1, 14] was “increment”. For the same molecule, the “CD11b+Ly6G positive cells in peripheral blood compared with control mice” value [1, 14] was “increment”, the “Ly6G positive cells in peripheral blood compared with control mice” value [1, 14] was “increment” and the “CD11b+ cells, PBL (Peripheral Blood), flow cytometry, Media” value [1, 15] was 36.95%. The “CD11b+Ly6G+ cells, PBL (Peripheral Blood), flow cytometry, Media” value [1, 15] was 31.05%, the “Ly6G+ cells, PBL (Peripheral Blood), flow cytometry, Media” value [1, 15] was 34.775% and the “CD11b+ cells, PBL (Peripheral Blood), flow cytometry” value [1, 16] was 35.5% and 44% and 35.4% and 32.9%. For the same molecule, the “CD11b+Ly6G+ cells, PBL (Peripheral Blood), flow cytometry” value [1, 16] was 29.7% and 32.3% and 28.5% and 33.7%, the “Ly6G+ cells, PBL (Peripheral Blood), flow cytometry” value [1, 16] was 27% and 37.6% and 33.3% and 41.2% and the “Tumour growth inhibition?” value [2] was “YES”. The “Tumour growth inhibition?” value (KLN 205 (lung carcinoma)) was “YES”.
